Target: T1, bacteriophage T4 DNA polymerase (Enterobacteria phage T4, UniProt P04415)
T1 construct: made in house
T1 sequence (P04415 1-898): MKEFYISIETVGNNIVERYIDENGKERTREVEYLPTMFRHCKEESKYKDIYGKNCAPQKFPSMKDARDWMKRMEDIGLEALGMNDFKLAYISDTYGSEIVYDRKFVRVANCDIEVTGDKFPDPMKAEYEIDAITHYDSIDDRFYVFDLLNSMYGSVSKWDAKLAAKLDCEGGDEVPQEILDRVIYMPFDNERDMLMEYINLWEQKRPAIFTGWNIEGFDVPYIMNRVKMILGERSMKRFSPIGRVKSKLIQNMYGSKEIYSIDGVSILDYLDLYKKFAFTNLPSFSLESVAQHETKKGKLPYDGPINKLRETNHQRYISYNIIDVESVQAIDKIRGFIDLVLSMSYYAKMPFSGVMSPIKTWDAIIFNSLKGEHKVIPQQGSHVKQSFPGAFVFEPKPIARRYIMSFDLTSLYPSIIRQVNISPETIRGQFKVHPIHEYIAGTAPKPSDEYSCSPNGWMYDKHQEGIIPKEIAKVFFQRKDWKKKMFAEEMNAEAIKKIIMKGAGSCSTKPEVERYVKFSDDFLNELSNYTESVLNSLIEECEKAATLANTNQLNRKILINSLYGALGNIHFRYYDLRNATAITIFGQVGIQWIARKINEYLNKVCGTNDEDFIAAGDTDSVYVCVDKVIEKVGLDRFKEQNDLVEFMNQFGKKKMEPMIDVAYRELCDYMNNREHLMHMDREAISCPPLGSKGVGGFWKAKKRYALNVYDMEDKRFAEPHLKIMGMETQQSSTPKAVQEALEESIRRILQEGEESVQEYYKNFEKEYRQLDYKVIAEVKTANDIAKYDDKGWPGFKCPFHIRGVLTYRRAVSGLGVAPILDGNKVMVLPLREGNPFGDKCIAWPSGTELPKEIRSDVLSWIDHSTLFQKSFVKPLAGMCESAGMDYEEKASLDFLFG
Assay: Counter-screen against bacteriophage T4 DNA polymerase
Format: biochemical
Conditions: for % inhibition T4 10' 2.5 / % inhibition T4 10' 5 / % inhibition T4 10' 10 / % inhibition T4 10' 20 / % inhibition T4 10' 40 / % inhibition T4 10' 80: read at 10'; for % inhibition T4 10' 5 / % inhibition T4 70' 5 / % inhibition T4 130' 5 / % inhibition T4 40' 5 / % inhibition T4 90' 5 / % inhibition T4 180' 5: concentration 5; for % inhibition T4 10' 80 / % inhibition T4 70' 80 / % inhibition T4 130' 80 / % inhibition T4 40' 80 / % inhibition T4 90' 80 / % inhibition T4 180' 80: concentration 80; for % inhibition T4 70' 2.5 / % inhibition T4 70' 5 / % inhibition T4 70' 10 / % inhibition T4 70' 20 / % inhibition T4 70' 40 / % inhibition T4 70' 80: read at 70'; for % inhibition T4 130' 2.5 / % inhibition T4 130' 5 / % inhibition T4 130' 10 / % inhibition T4 130' 20 / % inhibition T4 130' 40 / % inhibition T4 130' 80: read at 130'; for % inhibition T4 40' 2.5 / % inhibition T4 40' 5 / % inhibition T4 40' 10 / % inhibition T4 40' 20 / % inhibition T4 40' 40 / % inhibition T4 40' 80: read at 40'; for % inhibition T4 90' 2.5 / % inhibition T4 90' 5 / % inhibition T4 90' 10 / % inhibition T4 90' 20 / % inhibition T4 90' 40 / % inhibition T4 90' 80: read at 90'; for % inhibition T4 180' 2.5 / % inhibition T4 180' 5 / % inhibition T4 180' 10 / % inhibition T4 180' 20 / % inhibition T4 180' 40 / % inhibition T4 180' 80: read at 180'
Experimental: Codon-optimized, exonuclease-deficient Pf-apPOL was overexpressed in E. coli BL21 (DE3) and purified as described. The protein was dialysed against two, 1-liter changes of 20 mM Tris-HCl (pH 8.0), 400 mM NaCl, and 20% glycerol. Plasmodium bergei and Babesia bovis apPOLs (Pb-apPOL and Bb-apPOL, respectively) were codon-optimized, expressed, and purified as for Pf-apPOL[15]. Bacteriophage T4 DNA polymerase was purified as described. The DNA oligonucleotides used to make the high-throughput substrate were obtained from Integrated DNA Technologies. Deoxynucleotides were purchased from Strategene. All other materials came from Fisher Scientific.
Each compound was tested in a dose-response format to determine IC50 values. […] T4 DNA polymerase can be produced in large quantities, and is in the same family (B-family) as the replicative human DNA polymerases (α, δ, and ε)[20].

For C#CC(C=CC)OC(=O)c1ccccc1C(=O)O (stereo not drawn) [Molecule 61, CC=CC(OC(=O)c1ccccc1C(=O)O)C#C], the “% inhibition T4 10' 2.5” value (DRC-1, concentration 2.5) was 9.3785%, the “% inhibition T4 10' 5” value (DRC-1) was 11.31% and the “% inhibition T4 10' 10” value (DRC-1, concentration 10) was 22.4398%. The “% inhibition T4 10' 20” value (DRC-1, concentration 20) was 21.3205%, the “% inhibition T4 10' 40” value (DRC-1, concentration 40) was 28.2089% and the “% inhibition T4 10' 80” value (DRC-1) was 28.2741%. The “% inhibition T4 70' 2.5” value (DRC-1, concentration 2.5) was 5.999%, the “% inhibition T4 70' 5” value (DRC-1) was 5.822% and the “% inhibition T4 70' 10” value (DRC-1, concentration 10) was 15.1139%. For the same compound, the “% inhibition T4 70' 20” value (DRC-1, concentration 20) was 11.2187%, the “% inhibition T4 70' 40” value (DRC-1, concentration 40) was 17.6446% and the “% inhibition T4 70' 80” value (DRC-1) was 16.7862%. The “% inhibition T4 130' 2.5” value (DRC-1, concentration 2.5) was 3.358%, the “% inhibition T4 130' 5” value (DRC-1) was 2.079% and the “% inhibition T4 130' 10” value (DRC-1, concentration 10) was 10.4202%. The “% inhibition T4 130' 20” value (DRC-1, concentration 20) was 6.447%, the “% inhibition T4 130' 40” value (DRC-1, concentration 40) was 13.4652% and the “% inhibition T4 130' 80” value (DRC-1) was 12.4594%. For the same compound, the “% inhibition T4 10' 2.5” value (DRC-2, concentration 2.5) was -4.4%, the “% inhibition T4 10' 5” value (DRC-2) was -3% and the “% inhibition T4 10' 10” value (DRC-2, concentration 10) was 4%. The “% inhibition T4 10' 20” value (DRC-2, concentration 20) was 6.52%, the “% inhibition T4 10' 40” value (DRC-2, concentration 40) was 12% and the “% inhibition T4 10' 80” value (DRC-2) was 8%. The “% inhibition T4 40' 2.5” value (DRC-2, concentration 2.5) was -4.37%, the “% inhibition T4 40' 5” value (DRC-2) was -3.69% and the “% inhibition T4 40' 10” value (DRC-2, concentration 10) was 2%. For the same compound, the “% inhibition T4 40' 20” value (DRC-2, concentration 20) was 3.35%, the “% inhibition T4 40' 40” value (DRC-2, concentration 40) was 9% and the “% inhibition T4 40' 80” value (DRC-2) was 4.65%. The “% inhibition T4 90' 2.5” value (DRC-2, concentration 2.5) was -3.79%, the “% inhibition T4 90' 5” value (DRC-2) was -6% and the “% inhibition T4 90' 10” value (DRC-2, concentration 10) was 0.277%. The “% inhibition T4 90' 20” value (DRC-2, concentration 20) was 0.217%, the “% inhibition T4 90' 40” value (DRC-2, concentration 40) was 6% and the “% inhibition T4 90' 80” value (DRC-2) was 0.315%. For the same compound, the “% inhibition T4 180' 2.5” value (DRC-2, concentration 2.5) was -5.62%, the “% inhibition T4 180' 5” value (DRC-2) was -11% and the “% inhibition T4 180' 10” value (DRC-2, concentration 10) was -7%. For the same compound, the “% inhibition T4 180' 20” value (DRC-2, concentration 20) was -5.56%, the “% inhibition T4 180' 40” value (DRC-2, concentration 40) was -0.544% and the “% inhibition T4 180' 80” value (DRC-2) was -3.3%.

O=C(CSc1nnc(-c2ccco2)[nH]1)c1ccc(Cl)cc1 [KU0029065] was tested, and the “% inhibition T4 40'” value (DRC-2, concentration 10) was 3%, the “% inhibition T4 40'” value (DRC-2, concentration 40) was -2% and the “% inhibition T4 90'” value (DRC-2, concentration 2.5) was -13%. For the same compound, the “% inhibition T4 90'” value (DRC-2, concentration 20) was 3%, the “% inhibition T4 180'” value (DRC-2, concentration 2.5) was -13% and the “% inhibition T4 180'” value (DRC-2, concentration 10) was -2%.

With CC(C)CC(C(=O)O)N1C(=O)C2C3C=CC(C2C1=O)C1C(=O)N(C(CC(C)C)C(=O)O)C(=O)C31 (stereo not drawn) [KU0193449] the “% inhibition T4 10' 2.5” value (DRC-1, concentration 2.5) was 3.278%, the “% inhibition T4 10' 5” value (DRC-1) was 4.491% and the “% inhibition T4 10' 10” value (DRC-1, concentration 10) was 8.777%. The “% inhibition T4 10' 20” value (DRC-1, concentration 20) was 7.866%, the “% inhibition T4 10' 40” value (DRC-1, concentration 40) was 21.6809% and the “% inhibition T4 10' 80” value (DRC-1) was 52.1619%. The “% inhibition T4 70' 2.5” value (DRC-1, concentration 2.5) was 0.3673%, the “% inhibition T4 70' 5” value (DRC-1) was 1.3204% and the “% inhibition T4 70' 10” value (DRC-1, concentration 10) was 2.619%. For the same compound, the “% inhibition T4 70' 20” value (DRC-1, concentration 20) was 3.878%, the “% inhibition T4 70' 40” value (DRC-1, concentration 40) was 15.5336% and the “% inhibition T4 70' 80” value (DRC-1) was 40.8979%. The “% inhibition T4 130' 2.5” value (DRC-1, concentration 2.5) was -2.364%, the “% inhibition T4 130' 5” value (DRC-1) was -1.909% and the “% inhibition T4 130' 10” value (DRC-1, concentration 10) was -0.6043%. For the same compound, the “% inhibition T4 130' 20” value (DRC-1, concentration 20) was 0.2689%, the “% inhibition T4 130' 40” value (DRC-1, concentration 40) was 11.2312% and the “% inhibition T4 130' 80” value (DRC-1) was 34.0378%. For the same compound, the “% inhibition T4 10' 2.5” value (DRC-2, concentration 2.5) was 4.54%, the “% inhibition T4 10' 5” value (DRC-2) was 4.24% and the “% inhibition T4 10' 10” value (DRC-2, concentration 10) was 10%. The “% inhibition T4 10' 20” value (DRC-2, concentration 20) was 15%, the “% inhibition T4 10' 40” value (DRC-2, concentration 40) was 28% and the “% inhibition T4 10' 80” value (DRC-2) was 55%. The “% inhibition T4 40' 2.5” value (DRC-2, concentration 2.5) was 4.54%, the “% inhibition T4 40' 5” value (DRC-2) was 4.24% and the “% inhibition T4 40' 10” value (DRC-2, concentration 10) was 10%. The “% inhibition T4 40' 20” value (DRC-2, concentration 20) was 15%, the “% inhibition T4 40' 40” value (DRC-2, concentration 40) was 28% and the “% inhibition T4 40' 80” value (DRC-2) was 55%. The “% inhibition T4 90' 2.5” value (DRC-2, concentration 2.5) was 4%, the “% inhibition T4 90' 5” value (DRC-2) was 3% and the “% inhibition T4 90' 10” value (DRC-2, concentration 10) was 7%. The “% inhibition T4 90' 20” value (DRC-2, concentration 20) was 11%, the “% inhibition T4 90' 40” value (DRC-2, concentration 40) was 24% and the “% inhibition T4 90' 80” value (DRC-2) was 52%. For the same compound, the “% inhibition T4 180' 2.5” value (DRC-2, concentration 2.5) was -1%, the “% inhibition T4 180' 5” value (DRC-2) was -1.88% and the “% inhibition T4 180' 10” value (DRC-2, concentration 10) was 0.586%. For the same compound, the “% inhibition T4 180' 20” value (DRC-2, concentration 20) was 2.64%, the “% inhibition T4 180' 40” value (DRC-2, concentration 40) was 15% and the “% inhibition T4 180' 80” value (DRC-2) was 45%.
